Reference: patent publication US12077503B2, “Substituted cyclic amides and their use as herbicides” (FMC CORPORATION, priority 2015, dated 2024)

Tests used:
Assay in all cases: Test C postemergence
Type in all cases: in vivo
Conditions in all cases: scale 0 to 100, 0 no effect, 100 complete control
[1] = tested on: Galium (catchweed bedstraw, Galium aparine)
Summary of the method: (§1)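 After treatment with surfactant-containing formulations, either preemergence to seeds in loam-sand soil or postemergence to potted seedlings at 2–18 cm, plants were kept 13–15 d in a greenhouse. Observers then compared them with controls and assigned ratings, 0 signifying no effect and 100 complete control.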

[2] = tested on: Kochia (Kochia scoparia)
Summary of the method: as §1

[3] = tested on: chickweed (common chickweed, Stellaria media)
Summary of the method: as §1

[4] = tested on: corn (Zea mays)
Summary of the method: as §1

[5] = tested on: crabgrass, large (large crabgrass, Digitaria sanguinalis)
Summary of the method: as §1

[6] = tested on: foxtail, giant (giant foxtail, Setaria faberii)
Summary of the method: as §1

[7] = tested on: johnsongrass (Sorghum halepense)
Summary of the method: as §1

[8] = tested on: morningglory (Ipomoea coccinea)
Summary of the method: as §1

[9] = tested on: nutsedge, yellow (yellow nutsedge, Cyperus esculentus)
Summary of the method: as §1

[10] = tested on: oat, wild (wild oat, Avena fatua)
Summary of the method: as §1

[11] = tested on: oilseed rape (Brassica napus)
Summary of the method: as §1

[12] = tested on: pigweed (Amaranthus retroflexus)
Summary of the method: as §1

[13] = tested on: ragweed (common ragweed, Ambrosia elatior)
Summary of the method: as §1

[14] = tested on: velvetleaf (Abutilon theophrasti)
Summary of the method: as §1

[15] = tested on: waterhemp (common waterhemp, Amaranthus rudis)
Summary of the method: as §1

[16] = tested on: wheat (winter wheat, Triticum aestivum)
Summary of the method: as §1

SMILES: CN1C[C@H](c2ccc(F)c(F)c2)[C@@H](C(=O)Nc2cccc(F)c2F)C1=O [Compound 639, (3S,4S)—N-(2,3-difluorophenyl)-4-(3,4-difluorophenyl)-1-methyl-2-oxo-3-pyrrolidinecarboxamide]
- Plant response rating, Galium ([1]; 31 g ai/ha): 50
- Plant response rating, Galium ([1]; 62 g ai/ha): 50
- Plant response rating, Galium ([1]; 125 g ai/ha): 70
- Plant response rating, Galium ([1]; 250 g ai/ha): 70
- Plant response rating, Kochia ([2]; 31 g ai/ha): 40
- Plant response rating, Kochia ([2]; 62 g ai/ha): 50
- Plant response rating, Kochia ([2]; 125 g ai/ha): 80
- Plant response rating, Kochia ([2]; 250 g ai/ha): 85
- Plant response rating, Chickweed ([3]; 31 g ai/ha): 40
- Plant response rating, Chickweed ([3]; 62 g ai/ha): 40
- Plant response rating, Chickweed ([3]; 125 g ai/ha): 50
- Plant response rating, Chickweed ([3]; 250 g ai/ha): 90
- Plant response rating, Corn ([4]; 31 g ai/ha): 0
- Plant response rating, Corn ([4]; 62 g ai/ha): 0
- Plant response rating, Corn ([4]; 125 g ai/ha): 0
- Plant response rating, Corn ([4]; 250 g ai/ha): 35
- Plant response rating, Crabgrass, Large ([5]; 31 g ai/ha): 60
- Plant response rating, Crabgrass, Large ([5]; 62 g ai/ha): 70
- Plant response rating, Crabgrass, Large ([5]; 125 g ai/ha): 70
- Plant response rating, Crabgrass, Large ([5]; 250 g ai/ha): 80
- Plant response rating, Foxtail, Giant ([6]; 31 g ai/ha): 35
- Plant response rating, Foxtail, Giant ([6]; 62 g ai/ha): 60
- Plant response rating, Foxtail, Giant ([6]; 125 g ai/ha): 80
- Plant response rating, Foxtail, Giant ([6]; 250 g ai/ha): 85
- Plant response rating, Johnsongrass ([7]; 31 g ai/ha): 0
- Plant response rating, Johnsongrass ([7]; 62 g ai/ha): 0
- Plant response rating, Johnsongrass ([7]; 125 g ai/ha): 0
- Plant response rating, Johnsongrass ([7]; 250 g ai/ha): 0
- Plant response rating, Morningglory ([8]; 31 g ai/ha): 30
- Plant response rating, Morningglory ([8]; 62 g ai/ha): 25
- Plant response rating, Morningglory ([8]; 125 g ai/ha): 60
- Plant response rating, Morningglory ([8]; 250 g ai/ha): 75
- Plant response rating, Nutsedge, Yellow ([9]; 31 g ai/ha): 0
- Plant response rating, Nutsedge, Yellow ([9]; 62 g ai/ha): 0
- Plant response rating, Nutsedge, Yellow ([9]; 125 g ai/ha): 0
- Plant response rating, Nutsedge, Yellow ([9]; 250 g ai/ha): 10
- Plant response rating, Oat, Wild ([10]; 31 g ai/ha): 0
- Plant response rating, Oat, Wild ([10]; 62 g ai/ha): 0
- Plant response rating, Oat, Wild ([10]; 125 g ai/ha): 0
- Plant response rating, Oat, Wild ([10]; 250 g ai/ha): 0
- Plant response rating, Oilseed Rape ([11]; 31 g ai/ha): 30
- Plant response rating, Oilseed Rape ([11]; 62 g ai/ha): 30
- Plant response rating, Oilseed Rape ([11]; 125 g ai/ha): 40
- Plant response rating, Oilseed Rape ([11]; 250 g ai/ha): 50
- Plant response rating, Pigweed ([12]; 31 g ai/ha): 10
- Plant response rating, Pigweed ([12]; 62 g ai/ha): 45
- Plant response rating, Pigweed ([12]; 125 g ai/ha): 40
- Plant response rating, Pigweed ([12]; 250 g ai/ha): 45
- Plant response rating, Ragweed ([13]; 31 g ai/ha): 0
- Plant response rating, Ragweed ([13]; 62 g ai/ha): 10
- Plant response rating, Ragweed ([13]; 125 g ai/ha): 50
- Plant response rating, Ragweed ([13]; 250 g ai/ha): 65
- Plant response rating, Velvetleaf ([14]; 31 g ai/ha): 35
- Plant response rating, Velvetleaf ([14]; 62 g ai/ha): 60
- Plant response rating, Velvetleaf ([14]; 125 g ai/ha): 50
- Plant response rating, Velvetleaf ([14]; 250 g ai/ha): 60
- Plant response rating, Waterhemp ([15]; 31 g ai/ha): 10
- Plant response rating, Waterhemp ([15]; 62 g ai/ha): 25
- Plant response rating, Waterhemp ([15]; 125 g ai/ha): 30
- Plant response rating, Waterhemp ([15]; 250 g ai/ha): 25
- Plant response rating, Wheat ([16]; 31 g ai/ha): 0
- Plant response rating, Wheat ([16]; 62 g ai/ha): 0
- Plant response rating, Wheat ([16]; 125 g ai/ha): 0
- Plant response rating, Wheat ([16]; 250 g ai/ha): 0
